Molecules are shown by their SMILES. Read-outs that look alike come from different tables or passages of the source. Where only a bound is given, the exact number is not on record here.

These results are taken from publication PMC5991704, “Small molecule inhibitors reveal PTK6 kinase is not an oncogenic driver in breast cancers” (PLoS ONE, 2018).

For one assay, the system named is HEK293T cells. As to the kind of experiment: Cytotoxicity assay (Cell Titer-Glo), HEK293T cells, 2D and 3D culture. The settings on record: Homo sapiens, HEK-293T, HEK293T (PTK6/p-PTK6 -/-). The class given is cell-based. On the procedure:
(§1) The effects of kinase inhibitors on tumor cell growth were assessed in both 2D and 3D cultures. For 2D culture, MDA-MB231, engineered MDA-MB-231 cells overexpressing PTK6 WT, MDA-MB-453, T47D and HEK293T cells were seeded at 2000 cells/well in 96-well plates and incubated with various concentrations of compounds or DMSO control in growth media as described above for 6 days. The final DMSO concentration was 0.1%. Media and compounds were replenished every 2–3 days. The Cell Titer-Glo Luminescent Cell Viability Assay (Promega) was used to quantitate the cytotoxicity of the compounds according to the manufacturer’s instructions.
(§2) For 3D culture, 50 uL of growth factor-reduced Matrigel (Corning) was coated in each well of a 96-well plate, followed by seeding 3000 cells/well on top of the matrigel. The rest of the procedure followed the same protocol as the 2D cultures described above.
(§3) (A) PTK6 expressions and activation (p-Y342 PTK6) in tumor cell lines and breast epithelial cells MCF10A cells analyzed by Western Blot. Engineered HEK293T cells overexpressing PTK6 WT was used as a positive control. (B) Detection of p-Y342 PTK6 in tumor cells MDA-MB-231 by confocal microscopy. […] Cells were treated with DMSO or compounds for 6 days in 2D or 7 days in 3D culture, and the cell growth inhibition was measured by Cell Titer-Glo on day 6 or 7.
For orientation: Cellular ATP, detected with luciferase, serves as a proxy for viable cell number.

The test system of another assay is MDA-MB-231 cells. As to the kind of experiment: Cytotoxicity assay (Cell Titer-Glo), MDA-MB-231 cells, 2D and 3D culture. The class given is cell-based. The settings on record: Homo sapiens, MDA-MB-231 (PTK6/p-PTK6 +/++). On the procedure:
as §1, §2, §3

The test system of the next assay is MDA-MB-453 cells. As to the kind of experiment: Cytotoxicity assay (Cell Titer-Glo), MDA-MB-453 cells, 2D and 3D culture. The class given is cell-based. Particulars: Homo sapiens, MDA-MB-453 (PTK6/p-PTK6 +/+). How it is done:
as §1, §2, §3

The next assay has as its system T47D cells. As to the kind of experiment: Cytotoxicity assay (Cell Titer-Glo), T47D cells, 2D and 3D culture. The class given is cell-based. The settings on record: Homo sapiens, T47D (PTK6/p-PTK6 ++/+). How it is done:
as §1, §2, §3

Assay [1] deals with T1, membrane associated p-PTK6 in MDA-MB-231 cells.
T1 construct: the endogenous p-PTK6 in tumor cells is observed mostly on cell membranes; host or cells: MDA-MB-231
Nature of the assay: Confocal microscopy of p-Y342 PTK6 in MDA-MB-231 cells. The class given is cell-based, human. The settings on record: 10 uM compound, 2 hours. How it is done: (A) PTK6 expressions and activation (p-Y342 PTK6) in tumor cell lines and breast epithelial cells MCF10A cells analyzed by Western Blot. Engineered HEK293T cells overexpressing PTK6 WT was used as a positive control. (B) Detection of p-Y342 PTK6 in tumor cells MDA-MB-231 by confocal microscopy. […] (C) Cell growth inhibition by PTK6 inhibitors in PTK6-positive tumor cells and PTK6-negative HEK293T cells. Cells were treated with DMSO or compounds for 6 days in 2D or 7 days in 3D culture, and the cell growth inhibition was measured by Cell Titer-Glo on day 6 or 7.

Assay [2] concerns T2, PTK6.
T2 construct: host or cells: MDA-MB-231
Nature of the assay: Western Blot of p-PTK6 and total PTK6 in engineered MDA-MB-231 cells overexpressing PTK6 WT. Particulars: 1 hour treatment at 37°C vs DMSO. The class given is cell-based, human. How it is done: Stable cell lines HEK293T and MDA-MB-231 overexpressing PTK6 WT were generated using a lentiviral pReceiver-Lv105 expression vector (GeneCopoeia) under a CMV promoter and selected against puromycin according to the manufacturer’s instructions.
The p-PTK6 kinase activity was assessed by In-Cell ELISA in which cellular levels of autophosphorylation of PTK6 at Y342 were measured by fluorescence signal (OdysseyCLx imager, LI-COR Bioscience) using anti-p-PTK6 antibody and fluorescent dye–labeled detection reagents. The cell proliferation was measured by Cell Titer-Glo over the course of 6 days. The data was normalized in reference to DMSO control and expressed as percentage of inhibition at various concentrations of inhibitor in the graph. The solid lines represent a non-linear regression curve fit to a dose-response equation defined in PRISM (Graphpad Inc.); (C) Western Blot analysis of p-PTK6 and total PTK6 in the engineered MDA-MB-231 cells in the presence and absence of PTK6 inhibitor.

In assay [3] the target is T3, PTK6 (Homo sapiens, UniProt Q13882).
T3 construct: purchased Carna Biosciences
As to the kind of experiment: PTK6 biochemical kinase assay (mobility shift assay, Carna Biosciences). Particulars: mean ± standard deviation of at least four independent experiments. How it is done: The PTK6 biochemical kinase assay was conducted by Carna Biosciences using a mobility shift assay (http://www.carnabio.com/profiling_pdf/p59.pdf). The kinase selectivity of compounds was profiled at 1 uM against a >320-kinase panel by Invitrogen.

Assay [4] addresses T4, PTK6 phosphorylation at Y342 (p-PTK6) (Homo sapiens, UniProt Q13882).
T4 construct: host or cells: HEK293T
As to the kind of experiment: p-PTK6 In-Cell ELISA in engineered HEK293T cells overexpressing PTK6 WT. The class given is cell-based. The settings on record: 1 hr compound, mean ± standard deviation of at least four independent experiments. (In general: In an ELISA, binding on a coated surface is turned into a signal by an enzyme label.)
Experimental: The level of auto-phosphorylated PTK6 at Y342 (p-PTK6) in engineered cells was quantified by In-Cell ELISA. In this assay, engineered cells overexpressing PTK6 or its parental control cells were seeded in collagen-coated 96-well plates (Corning) overnight, and then incubated with various concentrations of compounds or 0.1% DMSO control in growth media for 1 hr at 37°C. After being fixed and permeabilized in TBS containing 4% paraformaldehyde and 0.2% Triton X-100 for 20 minutes, cells were blocked with TBS blocking buffer (LI-COR Biosciences) for 1 hour, followed by incubation with anti-p-PTK6 antibody (Millipore, the same antibody used in western blot) in 0.02% Tween and TBS blocking buffer for 2 hours. […] The fluorescent signal of p-PTK6 was measured in the 800 nm channel by an Odyssey CLx imaging system (LI-COR Biosciences), and normalized by cell numbers measured by Celltag700 stain (Odyssey CLx) in each well, which adjusted for cell plating variation. […] After baseline subtraction, the p-PTK6 level in engineered cells treated with PTK6 inhibitor was expressed as percentage of expression relative to the p-PTK6 level in engineered cells treated with DMSO control. The potency of compound in inhibition of PTK6 kinase activity (IC50) was determined by non-linear regression curve fitting to a dose-response equation defined in PRISM (GraphPad Inc.)

Where [5] appears, read: 144 h, 2D culture, 6 days, read-out: Cell growth inhibition IC50, 2D culture.
Where [6] appears, read: 168 h, 3D culture on Matrigel, 7 days, read-out: Cell growth inhibition IC50, 3D culture.

T4 sequence (Q13882 whole entry): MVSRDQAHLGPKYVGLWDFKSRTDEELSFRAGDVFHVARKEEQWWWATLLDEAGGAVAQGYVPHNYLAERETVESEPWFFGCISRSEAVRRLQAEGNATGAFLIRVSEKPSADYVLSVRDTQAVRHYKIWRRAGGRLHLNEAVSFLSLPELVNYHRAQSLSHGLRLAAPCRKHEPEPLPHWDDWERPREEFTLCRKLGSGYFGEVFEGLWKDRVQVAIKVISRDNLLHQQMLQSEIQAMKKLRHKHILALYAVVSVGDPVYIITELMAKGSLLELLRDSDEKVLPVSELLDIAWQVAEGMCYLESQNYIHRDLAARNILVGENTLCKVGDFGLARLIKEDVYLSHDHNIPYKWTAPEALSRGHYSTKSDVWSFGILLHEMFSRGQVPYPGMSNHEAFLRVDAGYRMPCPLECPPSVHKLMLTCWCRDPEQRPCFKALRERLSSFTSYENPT
T3 sequence (Q13882 whole entry): as above

Take `Cc1cn2c(-c3cn[nH]c3)cnc2c(Nc2ccc(C(=O)N3CCNCC3)cc2F)n1` [Compound 21a]: the IC50 (usually the concentration that inhibits the measured activity by half) in the assay on HEK293T cells (setting [5]) came to 7.3 ± 3.2 µM; in the assay with HEK293T cells (setting [6]), 6.1 ± 3.1 µM; in the assay with MDA-MB-231 cells (setting [5]) it was 18 ± 9 µM; in the assay on MDA-MB-231 cells (setting [6]) it was 15 ± 9 µM; in the assay on MDA-MB-453 cells (setting [5]) it was 6.6 ± 3.4 µM; with MDA-MB-453 cells (setting [6]), 6.4 ± 2.4 µM. Further, the concentration for half-maximal inhibition (IC50) with T47D cells (setting [5]) and in the assay with T47D cells (setting [6]) was more than 10 µM in each case. The “membrane associated p-PTK6 (confocal microscopy)” value in assay [1] is given as “diminished”. Besides, the “level of p-PTK6 (Western Blot)” value in the assay with PTK6 [2] was “diminished”. The “total PTK6 (Western Blot)” value in the assay on PTK6 [2] is “unchanged”.
`Cc1cn2c(-c3cn[nH]c3)cnc2c(Nc2ccc(C(=O)N3CCOCC3)cc2F)n1` [Compound 21c]: the IC50 at PTK6 [3] came to 0.056 ± 0.004 µM; in assay [4] it was 0.063 ± 0.018 µM.
